Experimental data published in ChEMBL document CHEMBL1137691, “Diazinium salts with dihydroxyacetophenone skeleton: Syntheses and antimicrobial activity” (2009).

How the values were obtained:
Format in all cases: functional
Staphylococcus aureus = test: Antibacterial activity against Staphylococcus aureus ATCC 25923 at 30 ug/disk after 24 hrs by diffusion technique; settings: ATCC 25923, 24 h, read-out: DIZ
[1] = tested on: Staphylococcus saprophyticus; test: Antibacterial activity against Staphylococcus saprophyticus at 30 ug/disk after 24 hrs by diffusion technique; settings: read-out: DIZ
Micrococcus luteus = test: Antibacterial activity against Sarcina lutea ATCC 9341 at 30 ug/disk after 24 hrs by diffusion technique; settings: ATCC 9341, 24 h, read-out: DIZ
Bacillus cereus = test: Antibacterial activity against Bacillus cereus at 30 ug/disk after 24 hrs by diffusion technique; settings: read-out: DIZ
Bacillus subtilis = test: Antibacterial activity against Bacillus subtilis at 30 ug/disk after 24 hrs by diffusion technique; settings: read-out: DIZ
Escherichia coli = test: Antibacterial activity against Escherichia coli ATCC 25922 at 30 ug/disk after 24 hrs by diffusion technique; settings: ATCC 25922, 24 h, read-out: DIZ
Pseudomonas aeruginosa = test: Antibacterial activity against Pseudomonas aeruginosa at 30 ug/disk after 24 hrs by diffusion technique; settings: read-out: DIZ
Candida albicans = test: Antifungal activity against Candida albicans at 100 ug/disk after 24 hrs by diffusion technique; settings: for zone of inhibition at 100 µg/disc: read-out: DIZ

Molecule	zone of inhibition at 30 µg/disc (Staphylococcus aureus) [mm]	zone of inhibition at 30 µg/disc [1] [mm]	zone of inhibition at 30 µg/disc (Micrococcus luteus) [mm]	zone of inhibition at 30 µg/disc (Bacillus cereus) [mm]	zone of inhibition at 30 µg/disc (Bacillus subtilis) [mm]	zone of inhibition at 30 µg/disc (Escherichia coli) [mm]	zone of inhibition at 30 µg/disc (Pseudomonas aeruginosa) [mm]	zone of inhibition at 100 µg/disc (Candida albicans) [mm]	inhibition zone (IZ) (Candida albicans) [mm]
O=C(C[n+]1ccccn1)c1ccc(O)c(O)c1	17	15	30	20	11	30	20	0	
O=C(C[n+]1ccc(O)nc1)c1ccc(O)c(O)c1	33	35	42	32	38	44	36	28	
NYSTATIN									28
Cc1ccc[n+](CC(=O)c2ccc(O)c(O)c2)n1	26	29	40	29	28	28	18	15	
O=C(C[n+]1cccc(-c2ccc(Br)cc2)n1)c1ccc(O)c(O)c1	17	21	30	9	16	15	15	12	
Cc1ccc(-c2ccc[n+](CC(=O)c3ccc(O)c(O)c3)n2)cc1	23	40	41	33	35	40	16	25	
Cc1cc[n+](CC(=O)c2ccc(O)c(O)c2)cn1	31	35	40	35	36	41	30	27	
O=C(N[C@H](CO)[C@H](O)c1ccc([N+](=O)[O-])cc1)C(Cl)Cl [CHLORAMPHENICOL]	23	23	38	22	22	22	11		
